Data on one molecule can be found in ChEMBL document CHEMBL4602719, “Discovery of Potent, Selective, and Orally Bioavailable Inhibitors of USP7 with In Vivo Antitumor Activity” (J Med Chem, 2020).

One series concerns the target Deubiquitinase OTUD6B (Homo sapiens, UniProt Q8N6M0). The experiment in a line: Inhibition of human GST-tagged OTUD6B expressed in Escherichia coli assessed as cleavage of Ubiquitin-Rhodamine110-glycine to Ubiquitin and Rhodamine110-glycine using Ubiquitin-Rhodamine110-glycine as substrate by fluorescence based analysis.
Series [1] can be described thus: Inhibition of human GST-tagged OTUD5 P177S mutant expressed in Escherichia coli assessed as cleavage of Ubiquitin-Rhodamine110-glycine to Ubiquitin and Rhodamine110-glycine using Ubiquitin-Rhodamine110-glycine as substrate by fluorescence based analysis.
Series [2] addresses OTU domain-containing protein 1 (Homo sapiens, UniProt Q5VV17). The experiment in a line: Inhibition of human 6His-tagged OTUD1 CD (270 to 481 residues) expressed in Escherichia coli assessed as cleavage of Ubiquitin-Rhodamine110-glycine to Ubiquitin and Rhodamine110-glycine using Ubiquitin-Rhodamine110-glycine as substrate by fluorescence based analysis.
Another series concerns the target Ataxin-3-like protein (Homo sapiens, UniProt Q9H3M9). Briefly: Inhibition of human 6His-tagged Ataxin-3L expressed in Escherichia coli assessed as cleavage of Ubiquitin-Rhodamine110-glycine to Ubiquitin and Rhodamine110-glycine using Ubiquitin-Rhodamine110-glycine as substrate by fluorescence based analysis.
In another series the target is Ataxin-3 (Homo sapiens, UniProt P54252). The experiment in a line: Inhibition of human GST-tagged Ataxin-3 expressed in Escherichia coli assessed as cleavage of Ubiquitin-Rhodamine110-glycine to Ubiquitin and Rhodamine110-glycine using Ubiquitin-Rhodamine110-glycine as substrate by fluorescence based analysis.
For series [3], the target named is Ubiquitin carboxyl-terminal hydrolase isozyme L1 (Homo sapiens, UniProt P09936). The experiment in a line: Inhibition of human 6His-tagged UCHL1 expressed in Escherichia coli assessed as cleavage of Ubiquitin-Rhodamine110-glycine to Ubiquitin and Rhodamine110-glycine using Ubiquitin-Rhodamine110-glycine as substrate by fluorescence based analysis.
Chain of Ubiquitin carboxyl-terminal hydrolase isozyme L1 (P09936 whole entry, the tested form may be a part): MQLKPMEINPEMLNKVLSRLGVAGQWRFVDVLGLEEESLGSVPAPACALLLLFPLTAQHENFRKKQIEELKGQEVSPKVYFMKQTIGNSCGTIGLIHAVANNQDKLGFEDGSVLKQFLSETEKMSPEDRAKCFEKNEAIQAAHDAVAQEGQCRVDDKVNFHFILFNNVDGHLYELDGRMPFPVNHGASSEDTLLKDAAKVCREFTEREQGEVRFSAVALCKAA
Series [4] deals with Ubiquitin carboxyl-terminal hydrolase 30 (Homo sapiens, UniProt Q70CQ3). The experiment in a line: Inhibition of human USP30 CD (57 to 517 residues) expressed in Escherichia coli assessed as cleavage of Ubiquitin-Rhodamine110-glycine to Ubiquitin and Rhodamine110-glycine using Ubiquitin-Rhodamine110-glycine as substrate by fluorescence based analysis.
Series [5] has as its target Ubiquitin carboxyl-terminal hydrolase 15 (Homo sapiens, UniProt Q9Y4E8). The experiment in a line: Inhibition of human USP15 isoform 2 expressed in Escherichia coli assessed as cleavage of Ubiquitin-Rhodamine110-glycine to Ubiquitin and Rhodamine110-glycine using Ubiquitin-Rhodamine110-glycine as substrate by fluorescence based analysis.
For series [6], the target named is Ubiquitin carboxyl-terminal hydrolase 36 (Homo sapiens, UniProt Q9P275). The experiment in a line: Inhibition of human GST-tagged USP36 CD (81 to 461 residues) expressed in Escherichia coli assessed as cleavage of Ubiquitin-Rhodamine110-glycine to Ubiquitin and Rhodamine110-glycine using Ubiquitin-Rhodamine110-glycine as substrate by fluorescence based analysis.

In series [7] the target is T1, Ubiquitin carboxyl-terminal hydrolase isozyme L3 (Homo sapiens, UniProt P15374).
T1 sequence (P15374 whole entry): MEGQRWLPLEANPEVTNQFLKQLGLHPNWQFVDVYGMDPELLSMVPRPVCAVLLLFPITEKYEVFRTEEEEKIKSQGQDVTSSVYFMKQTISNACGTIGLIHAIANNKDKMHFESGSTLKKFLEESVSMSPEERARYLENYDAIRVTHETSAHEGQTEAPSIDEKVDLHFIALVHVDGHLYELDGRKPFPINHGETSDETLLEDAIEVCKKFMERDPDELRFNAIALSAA
Briefly: Inhibition of human GST-tagged UCHL3 expressed in Escherichia coli assessed as cleavage of Ubiquitin-Rhodamine110-glycine to Ubiquitin and Rhodamine110-glycine using Ubiquitin-Rhodamine110-glycine as substrate by fluorescence based analysis.

Series [8] has as its target Deubiquitinating protein VCPIP1 (Homo sapiens, UniProt Q96JH7). Briefly: Inhibition of human GST-tagged VCPIP CD (25 to 561 residues) expressed in Escherichia coli assessed as cleavage of Ubiquitin-Rhodamine110-glycine to Ubiquitin and Rhodamine110-glycine using Ubiquitin-Rhodamine110-glycine as substrate by fluorescence based analysis.
Series [9] deals with Ubiquitin carboxyl-terminal hydrolase 8 (Homo sapiens, UniProt P40818). Briefly: Inhibition of human USP8 expressed in Escherichia coli assessed as cleavage of Ubiquitin-Rhodamine110-glycine to Ubiquitin and Rhodamine110-glycine using Ubiquitin-Rhodamine110-glycine as substrate by fluorescence based analysis.
Chain of Ubiquitin carboxyl-terminal hydrolase 8 (P40818 whole entry): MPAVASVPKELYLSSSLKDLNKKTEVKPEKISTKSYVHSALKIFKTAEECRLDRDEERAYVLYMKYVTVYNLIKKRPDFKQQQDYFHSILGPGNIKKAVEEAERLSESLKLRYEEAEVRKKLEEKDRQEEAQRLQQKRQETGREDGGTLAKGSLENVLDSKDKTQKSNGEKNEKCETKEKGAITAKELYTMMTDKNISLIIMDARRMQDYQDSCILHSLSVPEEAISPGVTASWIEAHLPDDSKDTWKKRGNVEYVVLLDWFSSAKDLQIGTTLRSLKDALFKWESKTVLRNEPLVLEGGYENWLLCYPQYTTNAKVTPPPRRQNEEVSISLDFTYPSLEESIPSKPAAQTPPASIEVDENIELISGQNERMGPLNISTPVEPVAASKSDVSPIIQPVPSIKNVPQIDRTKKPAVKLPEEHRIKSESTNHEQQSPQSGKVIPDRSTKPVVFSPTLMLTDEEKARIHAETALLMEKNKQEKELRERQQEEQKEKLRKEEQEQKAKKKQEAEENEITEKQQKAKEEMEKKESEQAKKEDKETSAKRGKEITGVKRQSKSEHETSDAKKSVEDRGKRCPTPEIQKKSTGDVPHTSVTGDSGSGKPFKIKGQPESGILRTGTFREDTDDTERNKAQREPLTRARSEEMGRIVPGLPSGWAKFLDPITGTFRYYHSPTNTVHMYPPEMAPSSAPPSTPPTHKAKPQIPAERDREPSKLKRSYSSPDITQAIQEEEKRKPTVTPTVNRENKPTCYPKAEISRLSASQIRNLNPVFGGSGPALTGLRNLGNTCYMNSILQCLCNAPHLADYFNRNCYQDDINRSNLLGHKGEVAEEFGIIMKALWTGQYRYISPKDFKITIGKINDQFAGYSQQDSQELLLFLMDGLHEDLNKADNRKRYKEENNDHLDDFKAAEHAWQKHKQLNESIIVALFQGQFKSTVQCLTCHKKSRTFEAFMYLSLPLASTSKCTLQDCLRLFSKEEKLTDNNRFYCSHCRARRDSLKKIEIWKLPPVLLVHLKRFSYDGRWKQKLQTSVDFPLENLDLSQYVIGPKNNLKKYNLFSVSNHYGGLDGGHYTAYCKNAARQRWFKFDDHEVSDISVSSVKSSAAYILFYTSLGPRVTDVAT
For the next series, the target named is Cytochrome P450 3A4 (Homo sapiens, UniProt P08684). The experiment in a line: Inhibition of CYP3A4 (unknown origin). It counts as ADME.
Chain of Cytochrome P450 3A4 (P08684 whole entry): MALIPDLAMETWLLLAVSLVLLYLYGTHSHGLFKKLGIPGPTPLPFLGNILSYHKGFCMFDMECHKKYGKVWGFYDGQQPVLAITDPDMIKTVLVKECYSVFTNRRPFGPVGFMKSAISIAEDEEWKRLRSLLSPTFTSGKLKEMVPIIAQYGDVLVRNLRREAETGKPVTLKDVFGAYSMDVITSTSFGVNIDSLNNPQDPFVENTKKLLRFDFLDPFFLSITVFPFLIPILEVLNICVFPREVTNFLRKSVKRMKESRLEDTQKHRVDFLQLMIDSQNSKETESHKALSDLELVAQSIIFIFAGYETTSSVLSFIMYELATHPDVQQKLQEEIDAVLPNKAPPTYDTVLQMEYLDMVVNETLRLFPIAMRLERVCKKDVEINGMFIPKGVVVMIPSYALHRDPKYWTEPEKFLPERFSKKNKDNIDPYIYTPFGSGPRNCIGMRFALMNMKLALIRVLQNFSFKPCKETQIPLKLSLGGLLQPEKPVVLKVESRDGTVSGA
Series [10] has as its target Ubiquitin thioesterase OTU1 (Homo sapiens, UniProt Q5VVQ6). Briefly: Inhibition of human GST-tagged OTU1 expressed in Escherichia coli assessed as cleavage of Ubiquitin-Rhodamine110-glycine to Ubiquitin and Rhodamine110-glycine using Ubiquitin-Rhodamine110-glycine as substrate by fluorescence based analysis.
Series [11] deals with Ubiquitin carboxyl-terminal hydrolase 35 (Homo sapiens, UniProt Q9P2H5). Briefly: Inhibition of USP35 (unknown origin).
Chain of Ubiquitin carboxyl-terminal hydrolase 35 (Q9P2H5 whole entry): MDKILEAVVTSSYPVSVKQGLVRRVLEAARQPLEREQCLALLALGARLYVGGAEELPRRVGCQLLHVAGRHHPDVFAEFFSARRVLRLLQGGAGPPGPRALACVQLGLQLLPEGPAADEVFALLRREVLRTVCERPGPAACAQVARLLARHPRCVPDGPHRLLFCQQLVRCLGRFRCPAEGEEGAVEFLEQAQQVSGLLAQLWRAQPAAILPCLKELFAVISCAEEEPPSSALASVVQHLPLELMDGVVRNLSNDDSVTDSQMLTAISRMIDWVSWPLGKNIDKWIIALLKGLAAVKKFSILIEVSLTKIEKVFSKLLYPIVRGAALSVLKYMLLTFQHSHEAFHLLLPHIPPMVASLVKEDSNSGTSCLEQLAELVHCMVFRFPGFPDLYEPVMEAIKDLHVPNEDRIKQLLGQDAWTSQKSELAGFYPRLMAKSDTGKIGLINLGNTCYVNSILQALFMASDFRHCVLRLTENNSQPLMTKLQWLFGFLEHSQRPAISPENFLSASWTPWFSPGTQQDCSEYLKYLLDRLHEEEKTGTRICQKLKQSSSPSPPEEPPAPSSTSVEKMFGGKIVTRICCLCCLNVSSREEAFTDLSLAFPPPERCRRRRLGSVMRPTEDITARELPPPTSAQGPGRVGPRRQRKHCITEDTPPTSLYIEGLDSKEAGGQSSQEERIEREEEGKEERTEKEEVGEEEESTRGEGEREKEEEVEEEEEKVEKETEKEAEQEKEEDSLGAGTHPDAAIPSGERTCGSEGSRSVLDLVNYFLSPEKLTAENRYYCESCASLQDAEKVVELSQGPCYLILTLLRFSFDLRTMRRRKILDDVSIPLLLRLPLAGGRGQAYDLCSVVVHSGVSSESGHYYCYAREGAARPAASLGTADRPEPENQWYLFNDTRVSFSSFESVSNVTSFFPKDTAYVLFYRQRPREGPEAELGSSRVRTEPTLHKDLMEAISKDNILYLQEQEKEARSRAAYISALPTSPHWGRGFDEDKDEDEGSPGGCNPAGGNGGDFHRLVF
The next series addresses Josephin-2 (Homo sapiens, UniProt Q8TAC2). The experiment in a line: Inhibition of human 6His-tagged JOSD2 expressed in Escherichia coli assessed as cleavage of Ubiquitin-Rhodamine110-glycine to Ubiquitin and Rhodamine110-glycine using Ubiquitin-Rhodamine110-glycine as substrate by fluorescence based analysis.
In series [12] the target is Ubiquitin carboxyl-terminal hydrolase 11 (Homo sapiens, UniProt P51784). Briefly: Inhibition of USP11 (unknown origin).
Chain of Ubiquitin carboxyl-terminal hydrolase 11 (P51784 whole entry, the tested form may be a part): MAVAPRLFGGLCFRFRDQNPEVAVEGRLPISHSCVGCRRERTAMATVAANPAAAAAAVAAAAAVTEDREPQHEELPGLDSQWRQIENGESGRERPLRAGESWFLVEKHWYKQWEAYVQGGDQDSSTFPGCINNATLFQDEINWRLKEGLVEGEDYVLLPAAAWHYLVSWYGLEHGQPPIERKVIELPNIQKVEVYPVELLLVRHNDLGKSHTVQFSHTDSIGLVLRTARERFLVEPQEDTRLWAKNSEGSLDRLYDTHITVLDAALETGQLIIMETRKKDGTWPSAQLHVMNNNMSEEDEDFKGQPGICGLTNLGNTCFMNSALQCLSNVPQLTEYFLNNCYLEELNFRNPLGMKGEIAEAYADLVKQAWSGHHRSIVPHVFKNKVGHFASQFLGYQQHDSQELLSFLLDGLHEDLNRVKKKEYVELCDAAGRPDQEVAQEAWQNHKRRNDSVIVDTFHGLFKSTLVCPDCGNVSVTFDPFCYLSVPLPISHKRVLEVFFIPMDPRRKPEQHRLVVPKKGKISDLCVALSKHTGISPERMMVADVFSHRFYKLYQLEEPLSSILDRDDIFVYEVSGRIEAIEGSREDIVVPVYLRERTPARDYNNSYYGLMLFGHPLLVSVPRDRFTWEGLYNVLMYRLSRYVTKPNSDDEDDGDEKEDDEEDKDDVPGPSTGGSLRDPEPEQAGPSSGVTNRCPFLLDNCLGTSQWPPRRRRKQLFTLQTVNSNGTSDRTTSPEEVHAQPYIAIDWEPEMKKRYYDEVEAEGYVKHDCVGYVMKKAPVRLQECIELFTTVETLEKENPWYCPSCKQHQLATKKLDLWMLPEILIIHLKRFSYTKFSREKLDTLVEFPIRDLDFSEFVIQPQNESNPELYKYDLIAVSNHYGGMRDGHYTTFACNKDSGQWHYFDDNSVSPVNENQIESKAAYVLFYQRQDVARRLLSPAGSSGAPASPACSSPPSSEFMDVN
Series [13] has as its target Ubiquitin carboxyl-terminal hydrolase 21 (Homo sapiens, UniProt Q9UK80). The experiment in a line: Inhibition of human GST-tagged USP21 CD (196 to 565 residues) expressed in Escherichia coli assessed as cleavage of Ubiquitin-Rhodamine110-glycine to Ubiquitin and Rhodamine110-glycine using Ubiquitin-Rhodamine110-glycine as substrate by fluorescence based analysis.

Chain of OTU domain-containing protein 1 (Q5VV17 whole entry, the tested form may be a part): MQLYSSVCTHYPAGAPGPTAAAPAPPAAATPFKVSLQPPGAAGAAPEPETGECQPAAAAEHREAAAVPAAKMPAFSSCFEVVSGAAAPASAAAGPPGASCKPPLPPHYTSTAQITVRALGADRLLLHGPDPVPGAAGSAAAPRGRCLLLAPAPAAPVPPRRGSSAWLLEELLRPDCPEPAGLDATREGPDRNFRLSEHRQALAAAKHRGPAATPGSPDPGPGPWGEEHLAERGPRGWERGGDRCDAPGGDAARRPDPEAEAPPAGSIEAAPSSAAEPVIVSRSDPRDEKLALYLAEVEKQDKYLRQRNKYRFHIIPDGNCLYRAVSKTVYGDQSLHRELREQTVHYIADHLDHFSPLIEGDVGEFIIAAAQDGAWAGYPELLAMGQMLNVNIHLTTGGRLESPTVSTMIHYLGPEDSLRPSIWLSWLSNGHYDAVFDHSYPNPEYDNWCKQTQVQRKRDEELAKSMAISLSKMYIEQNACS
Chain of Deubiquitinase OTUD6B (Q8N6M0 whole entry): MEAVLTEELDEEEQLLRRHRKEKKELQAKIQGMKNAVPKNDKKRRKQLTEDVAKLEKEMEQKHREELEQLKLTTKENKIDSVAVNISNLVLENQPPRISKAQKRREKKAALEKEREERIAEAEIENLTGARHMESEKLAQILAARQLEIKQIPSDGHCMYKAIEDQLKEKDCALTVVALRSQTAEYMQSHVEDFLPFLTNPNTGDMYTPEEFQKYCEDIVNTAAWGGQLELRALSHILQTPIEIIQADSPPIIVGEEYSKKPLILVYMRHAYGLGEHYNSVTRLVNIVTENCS
Chain of Ataxin-3-like protein (Q9H3M9 whole entry): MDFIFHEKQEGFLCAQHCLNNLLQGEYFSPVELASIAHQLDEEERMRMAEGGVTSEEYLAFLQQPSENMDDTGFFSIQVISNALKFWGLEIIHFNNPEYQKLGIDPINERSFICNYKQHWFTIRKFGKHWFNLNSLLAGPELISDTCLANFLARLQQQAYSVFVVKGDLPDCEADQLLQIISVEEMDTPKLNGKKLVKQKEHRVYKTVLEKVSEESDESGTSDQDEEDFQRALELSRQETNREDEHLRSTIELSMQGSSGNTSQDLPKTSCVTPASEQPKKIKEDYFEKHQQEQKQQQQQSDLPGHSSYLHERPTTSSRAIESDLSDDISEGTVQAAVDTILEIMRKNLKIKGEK

Regarding `Cc1cc(Cl)cc(-c2ccnc3cc(CN4C(=O)C5C(C4=O)C5(C)C)sc23)c1O[C@@H]1CCNC[C@@H]1C` (stereo partly drawn), the IC50 (on Deubiquitinase OTUD6B; in series [1]; in series [2]; at Ataxin-3-like protein; at Ataxin-3; in series [3]) was greater than 10 µM throughout. In addition, the IC50 in series [4], in series [5], in series [6], in [7], in series [8] and in series [9] was greater than 10 µM each time. In addition, the IC50 (in [10]; in series [11]; at Josephin-2; in series [12]; in [13]) was greater than 10 µM throughout. Besides, the INH at Cytochrome P450 3A4 was determined as 6.2 µM.
